{"source": "patent US20220087960A1", "about": "“Oral Pharmaceutical Immediate Release Composition” (Aardvark Therapeutics Inc., priority 2020, published 2022)", "origin": "cited, not measured here", "test_system": "human TAS2Rs (TAS2R 4, 8, 10, 13, 39, 43, 46, and 47)", "conditions": "cited from earlier work", "data": [{"smiles": "CC[N+](CC)(CC(=O)Nc1c(C)cccc1C)Cc1ccccc1.O=C([O-])c1ccccc1", "note": "[DB, benzyl-[2-(2,6-dimethylanilino)-2-oxoethyl]-diethylazanium benzoate]", "values": [{"measurement": "activation of human TAS2Rs", "value": "activates to varying degrees eight human TAS2Rs"}]}]}
